Assay results: US20200172529A1, “Chemical Compound, Pharmaceutical Composition Thereof, and Use and Application Thereof” (Beijing Hanmi Pharm. Co., Ltd., priority 2017, published 2020)

Key:
TYK2 kinase = biological target: T1, TYK2 kinase (Homo sapiens, UniProt P29597); experiment: Inhibition assay of TYK2 kinase activity (ADP-Glo Kinase Assay); assay type: biochemical
T1 construct: purchased Life Technologies PR8440C
Protocol: Determination of inhibition of TYK2 kinase activity by the examples compounds disclosed herein
Inhibition assay of TYK2 kinase activity: the method of ADP-Glo™ Kinase Assay (Promega, V9102) was used to determine the inhibitory activity of the test compounds against TYK2 kinase.
TYK2 kinase (purchased from Life Technologies, article number: PR8440C) was diluted to the 2-fold final concentration (0.8 ng/mL) using reaction buffer (40 mM Tris-HCl, pH 7.5; 20 mM MgCl2; 0.1 mg/mL BSA; 1 mM DTT), and added to a 384-well plate at 5 μL/well. The test drugs were subjected to a 10-fold gradient dilution, from 10 μM, to obtain 6 concentrations, and added to experimental wells of the 384-well plate at 2.5 μL/well. 5 μL of water and 2.5 μL of buffer were added to negative control wells. 5 μL of TYK2 and 2.5 μL of water were added to positive control wells. After incubating for 10 minutes at room temperature, the substrate ATP and polyE4Y1 (Sigma, P0275) were added at 2.5 μL/well, mixed well, and then reacted at room temperature for 60 minutes. After the reaction was completed, the kinase activity was detected according to the instruction of the kit. First, the ADP-Glo reaction reagent was added at 10 μL/well, mixed well, and reacted at room temperature for 40 minutes. The kinase detection reagent was then added at 20 μL/well, mixed well, and then reacted at room temperature for 30 minutes. The detection was then performed and the IC50s of test drugs were calculated.

JAK1 kinase = JAK1 kinase (Homo sapiens, UniProt P23458); experiment: Inhibition assay of JAK1 kinase activity (ADP-Glo Kinase Assay); assay type: biochemical
Source text: Inhibition assay of JAK1 kinase activity: the method in ADP-Glo™ Kinase Assay (Promega, V9102) was used to determine the inhibitory activity of the test compounds against JAK1 kinase.

T1 sequence (P29597 whole entry): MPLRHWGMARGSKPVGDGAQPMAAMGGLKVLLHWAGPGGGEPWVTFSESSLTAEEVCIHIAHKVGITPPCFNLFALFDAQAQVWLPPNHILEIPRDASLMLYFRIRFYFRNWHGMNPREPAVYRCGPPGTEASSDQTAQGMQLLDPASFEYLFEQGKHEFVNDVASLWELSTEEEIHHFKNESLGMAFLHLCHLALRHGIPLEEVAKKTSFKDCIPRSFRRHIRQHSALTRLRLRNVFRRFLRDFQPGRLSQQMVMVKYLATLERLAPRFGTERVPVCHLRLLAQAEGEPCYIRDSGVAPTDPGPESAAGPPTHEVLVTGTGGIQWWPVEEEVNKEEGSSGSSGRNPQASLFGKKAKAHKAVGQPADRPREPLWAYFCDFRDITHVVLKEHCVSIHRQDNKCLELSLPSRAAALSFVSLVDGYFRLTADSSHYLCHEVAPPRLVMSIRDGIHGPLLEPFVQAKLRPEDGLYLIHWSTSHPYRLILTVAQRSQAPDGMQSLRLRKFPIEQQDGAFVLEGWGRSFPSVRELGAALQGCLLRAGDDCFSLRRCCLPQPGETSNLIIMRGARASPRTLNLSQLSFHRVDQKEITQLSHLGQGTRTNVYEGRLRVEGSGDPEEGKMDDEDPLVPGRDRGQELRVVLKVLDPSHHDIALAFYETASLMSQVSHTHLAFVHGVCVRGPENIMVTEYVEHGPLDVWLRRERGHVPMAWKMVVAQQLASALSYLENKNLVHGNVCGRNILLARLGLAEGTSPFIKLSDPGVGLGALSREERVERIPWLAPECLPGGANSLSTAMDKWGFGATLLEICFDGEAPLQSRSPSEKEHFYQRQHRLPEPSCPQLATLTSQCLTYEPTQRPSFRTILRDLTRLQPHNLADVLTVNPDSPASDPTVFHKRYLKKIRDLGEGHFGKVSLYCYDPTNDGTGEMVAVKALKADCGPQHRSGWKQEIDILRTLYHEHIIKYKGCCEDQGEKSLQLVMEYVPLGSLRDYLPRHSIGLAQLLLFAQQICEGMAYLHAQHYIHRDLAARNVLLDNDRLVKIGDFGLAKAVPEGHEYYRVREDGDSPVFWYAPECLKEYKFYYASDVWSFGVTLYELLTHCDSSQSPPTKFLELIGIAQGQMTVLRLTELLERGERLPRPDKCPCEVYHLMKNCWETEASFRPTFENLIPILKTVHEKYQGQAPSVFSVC
Sequence of JAK1 kinase (P23458 whole entry): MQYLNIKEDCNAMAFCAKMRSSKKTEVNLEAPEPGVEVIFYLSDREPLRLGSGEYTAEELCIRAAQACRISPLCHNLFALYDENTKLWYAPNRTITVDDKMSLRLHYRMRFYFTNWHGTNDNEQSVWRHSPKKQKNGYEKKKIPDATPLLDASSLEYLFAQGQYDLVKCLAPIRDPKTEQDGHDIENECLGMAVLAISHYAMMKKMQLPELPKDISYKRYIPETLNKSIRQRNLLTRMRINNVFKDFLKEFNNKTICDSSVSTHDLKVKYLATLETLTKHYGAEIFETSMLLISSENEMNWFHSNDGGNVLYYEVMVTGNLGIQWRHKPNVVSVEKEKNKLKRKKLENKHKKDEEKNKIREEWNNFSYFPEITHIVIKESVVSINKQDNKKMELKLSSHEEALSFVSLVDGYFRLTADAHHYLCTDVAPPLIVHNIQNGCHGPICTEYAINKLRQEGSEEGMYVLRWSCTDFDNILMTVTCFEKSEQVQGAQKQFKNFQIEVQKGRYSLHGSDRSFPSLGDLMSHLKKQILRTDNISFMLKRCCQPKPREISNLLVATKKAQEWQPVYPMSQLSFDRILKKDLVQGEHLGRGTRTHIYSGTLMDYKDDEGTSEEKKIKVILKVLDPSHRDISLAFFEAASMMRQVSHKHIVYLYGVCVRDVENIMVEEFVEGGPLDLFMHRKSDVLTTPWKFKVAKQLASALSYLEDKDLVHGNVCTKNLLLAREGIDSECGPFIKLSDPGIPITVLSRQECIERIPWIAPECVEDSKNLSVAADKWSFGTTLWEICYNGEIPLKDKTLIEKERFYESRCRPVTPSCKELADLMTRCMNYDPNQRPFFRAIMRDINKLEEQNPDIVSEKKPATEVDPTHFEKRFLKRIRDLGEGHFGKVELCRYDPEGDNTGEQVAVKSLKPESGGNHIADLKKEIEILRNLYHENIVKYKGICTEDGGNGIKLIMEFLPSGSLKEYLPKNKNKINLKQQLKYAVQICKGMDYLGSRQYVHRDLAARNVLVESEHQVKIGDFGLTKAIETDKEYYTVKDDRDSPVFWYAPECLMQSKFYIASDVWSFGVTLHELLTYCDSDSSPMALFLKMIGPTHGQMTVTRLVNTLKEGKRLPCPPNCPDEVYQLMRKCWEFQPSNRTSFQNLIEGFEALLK

Structure (SMILES)	IC50 (TYK2 kinase)	IC50 (JAK1 kinase)
CCO[C@@H]1CNc2cc(Nc3ncc(C(N)=O)c(NC4CC4)n3)ccc2OC1 [Example 83, 4-(cyclopropylamino)-2-(((R)-2,3,4,5-tetrahydro-3-ethoxybenzo[b][1,4]oxazepin-7-yl)amino)pyrimidin-5-carboxamide]	< 10 nM	
NC(=O)c1cnc(Nc2ccc3c(c2)NC[C@H](O)CO3)nc1NC1CC(O)C1 (stereo partly drawn) [Example 36, 4-((3-hydroxycyclobutyl)amino)-2-(((S)-2,3,4,5-tetrahydro-3-hydroxybenzo[b][1,4]oxazepin-7-yl)amino)pyrimidin-5-carboxamide]	< 10 nM	10 to 100 nM
CCCCO[C@@H]1CNc2cc(Nc3ncc(C(N)=O)c(NC4CC4)n3)ccc2OC1 [Example 85, 4-(cyclopropylamino)-2-(((R)-2,3,4,5-tetrahydro-3-butoxybenzo[b][1,4]oxazepin-7-yl)amino)pyrimidin-5-carboxamide]	< 10 nM	
NC(=O)c1cnc(Nc2ccc3c(c2)NCC(O)CO3)nc1NCc1ccncc1 (stereo not drawn) [Example 15, 4-((pyridin-4-ylmethyl)amino)-2-((3-hydroxy-2,3,4,5-tetrahydro-benzo[b][1,4]oxazepin-7-yl)amino)pyrimidin-5-carboxamide]	10 to 100 nM	
COc1ccc(CNc2nc(Nc3ccc4c(c3)NCC(O)CO4)ncc2C(N)=O)cc1 (stereo not drawn) [Example 11, 4-((4-methoxybenzyl)amino)-2-((3-hydroxy-2,3,4,5-tetrahydro-benzo[b][1,4]oxazepin-7-yl)amino)pyrimidin-5-carboxamide]	10 to 100 nM	
Cc1ccc(Nc2nc(Nc3ccc4c(c3)NCC(O)CO4)ncc2C(N)=O)nc1 (stereo not drawn) [Example 19, 4-((5-methylpyridin-2-yl)amino)-2-((3-hydroxy-2,3,4,5-tetrahydro-benzo[b][1,4]oxazepin-7-yl)amino)pyrimidin-5-carboxamide]	10 to 100 nM	
NC(=O)c1cnc(Nc2ccc3c(c2)NCC(O)CO3)nc1Nc1cccc(F)c1 (stereo not drawn) [Example 18, 4-((3-fluorophenyl)amino)-2-((3-hydroxy-2,3,4,5-tetrahydro-benzo[b][1,4]oxazepin-7-yl)amino)pyrimidin-5-carboxamide]	10 to 100 nM	
CC(Nc1nc(Nc2ccc3c(c2)NCC(O)CO3)ncc1C(N)=O)c1ccccc1 (stereo not drawn) [Example 12, 4-((1-phenylethyl)amino)-2-((3-hydroxy-2,3,4,5-tetrahydro-benzo[b][1,4]oxazepin-7-yl)amino)pyrimidin-5-carboxamide]	10 to 100 nM	
CCCCCO[C@H]1CNc2cc(Nc3ncc(C(N)=O)c(NC4CC4)n3)ccc2OC1 [Example 88, 4-(cyclopropylamino)-2-(((S)-2,3,4,5-tetrahydro-3-pentoxybenzo[b][1,4]oxazepin-7-yl)amino)pyrimidin-5-carboxamide]	10 to 100 nM	

Results, then the molecule that gave them:

IC50 (TYK2 kinase)	IC50 (JAK1 kinase)	Structure (SMILES)
< 10 nM	10 to 100 nM	Cc1cccc(Nc2nc(Nc3ccc4c(c3)NCC(O)CO4)ncc2C(N)=O)c1 (stereo not drawn) [Example 17, 4-((3-methylphenyl)amino)-2-((3-hydroxy-2,3,4,5-tetrahydro-benzo[b][1,4]oxazepin-7-yl)amino)pyrimidin-5-carboxamide]
< 10 nM	10 to 100 nM	CNc1nc(Nc2ccc3c(c2)NC[C@H](O)CO3)ncc1C(N)=O [Example 47, 4-(methylamino)-2-(((S)-2,3,4,5-tetrahydro-3-hydroxybenzo[b][1,4]oxazepin-7-yl)amino)pyrimidin-5-carboxamide]
< 10 nM	< 10 nM	NC(=O)c1cnc(Nc2ccc3c(c2)NC[C@H](O)CO3)nc1NCc1ccnc2[nH]ccc12 [Example 41, 4-(((1H-pyrrolo[2,3-b]pyridin-4-yl)methyl)amino)-2-(((S)-2,3,4,5-tetrahydro-3-hydroxybenzo[b][1,4]oxazepin-7-yl)amino)pyrimidin-5-carboxamide]
< 10 nM		NC(=O)c1cnc(Nc2ccc3c(c2)NCC(O)CO3)nc1NCc1ccccn1 (stereo not drawn) [Example 13, 4-((pyridin-2-ylmethyl)amino)-2-((3-hydroxy-2,3,4,5-tetrahydro-benzo[b][1,4]oxazepin-7-yl)amino)pyrimidin-5-carboxamide]
10 to 100 nM	10 to 100 nM	NC(=O)c1cnc(Nc2ccc3c(c2)NC[C@H](O)CO3)nc1NCCCN1CCOCC1 [Example 62, 4-((3-morpholinopropyl)amino)-2-(((S)-2,3,4,5-tetrahydro-3-hydroxybenzo[b][1,4]oxazepin-7-yl)amino)pyrimidin-5-carboxamide]
< 10 nM	10 to 100 nM	N#CCC(=O)N1CCC(Nc2nc(Nc3ccc4c(c3)NC[C@H](O)CO4)ncc2C(N)=O)C1 (stereo partly drawn) [Example 42, 4-((1-(2-cyanoacetyl)pyrrolidin-3-yl)amino)-2-(((S)-2,3,4,5-tetrahydro-3-hydroxybenzo[b][1,4]oxazepin-7-yl)amino)pyrimidin-5-carboxamide]
< 10 nM	< 10 nM	NC(=O)c1cnc(Nc2ccc3c(c2)NC[C@H](O)CO3)nc1NC1CCC(O)C1 (stereo partly drawn) [Example 37, 4-((3-hydroxycyclopentyl)amino)-2-(((S)-2,3,4,5-tetrahydro-3-hydroxybenzo[b][1,4]oxazepin-7-yl)amino)pyrimidin-5-carboxamide]
10 to 100 nM		NC(=O)c1cnc(Nc2ccc3c(c2)NCC(O)CO3)nc1NC1CCCc2ccccc21 (stereo not drawn) [Example 22, 4-((1,2,3,4-tetrahydronaphthalen-1-yl)amino)-2-((3-hydroxy-2,3,4,5-tetrahydro-benzo[b][1,4]oxazepin-7-yl)amino)pyrimidin-5-carboxamide]
< 10 nM		CCS(=O)(=O)NCCNc1nc(Nc2ccc3c(c2)NC[C@H](O)CO3)ncc1C(N)=O [Example 71, 4-((2-(ethylsulfonamido)ethyl)amino)-2-(((S)-2,3,4,5-tetrahydro-3-hydroxybenzo[b][1,4]oxazepin-7-yl)amino)pyrimidin-5-carboxamide]
10 to 100 nM		NC(=O)c1cnc(Nc2ccc3c(c2)NCC(O)CO3)nc1Nc1ccccc1 (stereo not drawn) [Example 16, 4-(phenylamino)-2-((3-hydroxy-2,3,4,5-tetrahydro-benzo[b][1,4]oxazepin-7-yl)amino)pyrimidin-5-carboxamide]
< 10 nM		CC(C)(CO)Nc1nc(Nc2ccc3c(c2)NC[C@H](O)CO3)ncc1C(N)=O [Example 28, 4-((1-hydroxy-2-methylpropan-2-yl)amino)-2-(((S)-2,3,4,5-tetrahydro-3-hydroxybenzo[b][1,4]oxazepin-7-yl)amino)pyrimidin-5-carboxamide]
10 to 100 nM		NC(=O)c1cnc(Nc2ccc3c(c2)NCC(O)CO3)nc1NCc1ccc(F)cc1 (stereo not drawn) [Example 10, 4-((4-fluorobenzyl)amino)-2-((3-hydroxy-2,3,4,5-tetrahydro-benzo[b][1,4]oxazepin-7-yl)amino)pyrimidin-5-carboxamide]
< 10 nM		CC(O)CNc1nc(Nc2ccc3c(c2)NCC(O)CO3)ncc1C(N)=O (stereo not drawn) [Example 23, 4-((2-hydroxypropyl)amino)-2-((3-hydroxy-2,3,4,5-tetrahydro-benzo[b][1,4]oxazepin-7-yl)amino)pyrimidin-5-carboxamide]
< 10 nM		NC(=O)c1cnc(Nc2ccc3c(c2)NCC(O)CO3)nc1Nc1cccc2sccc12 (stereo not drawn) [Example 21, 4-(benzo[b]thiophen-4-ylamino)-2-((3-hydroxy-2,3,4,5-tetrahydro-benzo[b][1,4]oxazepin-7-yl)amino)pyrimidin-5-carboxamide]
